Legend:
noci-TRAP^hM4 mice [1] = assay: Thermal gradient track adaptive avoidance; assay type: in vivo; conditions: versus saline
Method: To evaluate affective-motivational responses evoked by thermal stimulation (81), we applied either a single, unilateral 50-μL drop of water (5, 30, or 55° C.) or acetone (evaporative cooling) to the left hindpaw, and the duration of attending behavior was collected for up to 60 s after the stimulation. Only one drop stimulation was applied on a given testing session. To evaluate adaptive thermal avoidance and temperature preference, we placed mice in the center of a linear Thermal Gradient Track (121.92-cm L×8.25-cm W metal alloy floor; 15.24-cm H black plastic walls), with the floor featuring a temperature gradient along the long axis. Mice freely explored the track for 60 min. To create the temperature gradient, we placed either heating or cooling plates (Bioseb) under the outermost 16.51 cm of the metal floor, with one plate set to 50.0° C. and the other set to 0.0° C., creating an actual floor gradient of 48° C.→5° C., respectively. The track was subdivided into 25 temperature zones (4.8-cm D per zone), and we assessed the temperature at the center of each zone by a K-probe thermocouple. […] A video camera placed above the track recorded the position of the mouse within the temperature zones, and videos were later analyzed using a video-tracking software (Etho-vision, Noldus) for duration of zone occupancy, zone visits, distance, velocity, and acceleration.

noci-TRAP^hM4 mice [2] = assay: Reflexive and affective-motivational pain behaviors after chemogenetic inhibition of the BLA nociceptive ensemble; assay type: in vivo; conditions: CNO 10 mg/kg; mechanical and thermal noxious stimuli
Method: We habituated mice to a first testing room (room-A) for three consecutive days. Execution of all TRAP procedures occurred in Room-A. During these habituation days, no nociceptive stimuli were delivered, and no baseline thresholds were measured (i.e., mice were naïve to pain experience before the TRAP procedure). In room-A, we placed individual mice within red plastic cylinders (10.16-cm D), with a red lid, on a raised perforated, flat metal platform (60.96-cm H). […] This stimulus frequency was selected to closely match the protocols used in the microendoscope imaging experiments in which significant Ca^2+ transients were reliably detected in BLA Camk2a+ neurons. […]
To evaluate mechanical reflexive sensitivity, we used a logarithmically increasing set of 8 von Frey filaments (Stoelting), ranging in gram force from 0.07- to 6.0-g (93). […] Using the Up-Down statistical method, the 50% withdrawal mechanical threshold scores were calculated for each mouse and then averaged across the experimental groups. The response frequency was calculated as the number of positive responses out of 10 stimulations, delivered at 30-s intervals. […]

BLA neurons = assay: Clozapine-N-oxide control experiments with BLA Ca2+ imaging (no hM4 expression); assay type: in vivo, mice; conditions: CNO 10 mg/kg
Method: To check for possible alterations of neural activity in the presence of CNO alone (i.e., no hM4 expression), we conducted a shortened version of the main protocol (FIGS. 15D-15G). We injected mice with CNO (10 mg/kg), then placed them back in their home cage. After approximately 25 min, we mounted the miniature microscope on the mouse's head and placed them within the test chamber. They habituated for 10 min followed by adlibitum access to 10% sucrose solution delivered in the same manner as previously described. Mice then received a battery of stimuli: light touch (0.07-g von Frey filament), noxious pin (25G needle), or aloud noise (˜85 dB, same as previously described). We collected all subsequent data, processed Ca2+ imaging movies, and performed analysis similar to the main protocol used in FIG. 7.

[3] = system: ChR2-eYFP+ nociceptor mice; assay: Optical real-time place escape avoidance task; assay type: in vivo; conditions: CNO 10 mg/kg
Description: To evaluate active avoidance and escape behaviors to optogenetically driven nociception, mice expressing ChR2 in peripheral primary afferent nociceptors freely explored a custom-built two-choice chamber with LED-lit floor panels. A 32×32 LED array (8×8 cm) illuminated half the array in blue light, and the other half in red light (˜0.3 mW/mm^2). A thin glass surface (0.5 cm thick) covered the array floor, upon which we fitted a black plastic chamber (38 cm H) with a center divider wall containing a square passage hole (5-cm D) raised 2.5 cm from the array floor. The entire LED chamber was maintained in a quiet room with low ambient light (˜5 lux). We first placed mice in the red-light chamber and then allowed them to freely explore the chambers for 15 min. A camera placed above the chamber recorded the location of the mouse in the apparatus. We manually scored the videos to determine the time spent by the mouse in each chamber (automated tracking was not possible given the light from the LED floor). Only one mouse was present in the room during all trials.

C[N+]1([O-])CCN(C2=Nc3cc(Cl)ccc3Nc3ccccc32)CC1 [CNO, clozapine-N-oxide]
visits to the noxious zones (noci-TRAP^hM4 mice [1]; polar ends noxious cold (5 to 17° C.) and hot (42 to 8° C.)): more frequently | occupancy of the noxious zones (noci-TRAP^hM4 mice [1]; polar ends noxious cold (5 to 17° C.) and hot (42 to 48° C.)): prolonged periods | attending and escape behaviors (noci-TRAP^hM4 mice [2]): significantly reduced | mean neural response to various stimuli (BLA neurons): did not alter | aversion to the noxious blue light chamber [3]: eliminated the aversion

From patent US20210220489A1, “AMYGDALAR NEURAL ENSEMBLE THAT ENCODES THE UNPL[…] PAIN” (The Board of Trustees of the Leland Stanford Junior …, priority 2020, published 2021)
